# Experimental data taken from ChEMBL document CHEMBL4011590, “Structure-activity relationship studies on 3,5-dinitrophenyl tetrazoles as antitubercular agents” (Eur J Med Chem, 2017).
# What was measured:
# Aspergillus fumigatus [1] = experiment: Antifungal activity against Aspergillus fumigatus 231 after 48 hrs by broth microdilution method; type: functional; conditions: Aspergillus fumigatus, 231, 48 h
# [2] = test system: Trichophyton mentagrophytes; experiment: Antifungal activity against Trichophyton mentagrophytes 445 after 72 hrs by broth microdilution method; type: functional; conditions: Trichophyton mentagrophytes, 445, 72 h
# Klebsiella pneumoniae [3] = experiment: Antibacterial activity against Klebsiella pneumoniae HK11750/08 after 48 hrs by broth microdilution method; type: functional; conditions: HK11750/08, 48 h
# Pseudomonas aeruginosa [4] = experiment: Antibacterial activity against Pseudomonas aeruginosa ATCC 9027 after 24 hrs by broth microdilution method; type: functional; conditions: ATCC 9027, 24 h
# Mycobacterium kansasii [5] = experiment: Antimycobacterial activity against Mycobacterium kansasii CNCTC My 235/80 after 21 days by micromethod; type: functional; conditions: CNCTC My 235/80, 504 h
# [6] = test system: Mycobacterium tuberculosis; experiment: Antimycobacterial activity against Mycobacterium tuberculosis H37Rv CNCTC My 331/88 after 14 days by micromethod; type: functional; conditions: H37Rv CNCTC My 331/88, 336 h
# Mycobacterium kansasii [7] = experiment: Antimycobacterial activity against Mycobacterium kansasii CNCTC My 235/80 after 14 days by micromethod; type: functional; conditions: CNCTC My 235/80, 336 h
# Staphylococcus aureus [8] = experiment: Antibacterial activity against methicillin-resistant Staphylococcus aureus HK5996/08 after 24 hrs by broth microdilution method; type: functional; conditions: HK5996/08, 24 h
# Klebsiella pneumoniae [9] = experiment: Antibacterial activity against extended spectrum beta-lactamase producing Klebsiella pneumoniae HK14368/08 after 48 hrs by broth microdilution method; type: functional; conditions: HK14368/08, 48 h
# Mycobacterium avium [10] = experiment: Antimycobacterial activity against Mycobacterium avium CNCTC My 330/80 after 14 days by micromethod; type: functional; conditions: CNCTC My 330/80, 336 h
# Klebsiella pneumoniae [11] = experiment: Antibacterial activity against Klebsiella pneumoniae HK11750/08 after 24 hrs by broth microdilution method; type: functional; conditions: HK11750/08, 24 h
# Trichosporon asahii [12] = experiment: Antifungal activity against Trichosporon asahii 1188 after 48 hrs by broth microdilution method; type: functional; conditions: Trichosporon asahii, 1188, 48 h
# [13] = test system: Trichophyton mentagrophytes; experiment: Antifungal activity against Trichophyton mentagrophytes 445 after 120 hrs by broth microdilution method; type: functional; conditions: Trichophyton mentagrophytes, 445, 120 h
# Mycobacterium kansasii [14] = experiment: Antimycobacterial activity against Mycobacterium kansasii CNCTC My 235/80 after 7 days by micromethod; type: functional; conditions: CNCTC My 235/80, 168 h
# CHO-K1 = experiment: Cytotoxicity against CHOK1 cells after 24 hrs by MTT assay; type: cell-based; conditions: Cricetulus griseus, CHO-K1, 24 h
# Enterococcus sp. [15] = experiment: Antibacterial activity against Enterococcus sp. HK14365/08 after 24 hrs by broth microdilution method; type: functional; conditions: HK14365/08, 24 h
# Staphylococcus aureus [16] = experiment: Antibacterial activity against Staphylococcus aureus ATCC 6538 after 24 hrs by broth microdilution method; type: functional; conditions: ATCC 6538, 24 h
# Trichosporon asahii [17] = experiment: Antifungal activity against Trichosporon asahii 1188 after 24 hrs by broth microdilution method; type: functional; conditions: Trichosporon asahii, 1188, 24 h
# Candida tropicalis [18] = experiment: Antifungal activity against Candida tropicalis 156 after 24 hrs by broth microdilution method; type: functional; conditions: Candida tropicalis, 156, 24 h
# Pseudomonas aeruginosa [19] = experiment: Antibacterial activity against Pseudomonas aeruginosa ATCC 9027 after 48 hrs by broth microdilution method; type: functional; conditions: ATCC 9027, 48 h
# Pichia kudriavzevii [20] = experiment: Antifungal activity against Candida krusei E28 after 24 hrs by broth microdilution method; type: functional; conditions: E28, 24 h
# Escherichia coli [21] = experiment: Antibacterial activity against Escherichia coli ATCC 8739 after 24 hrs by broth microdilution method; type: functional; conditions: ATCC 8739, 24 h
# Lichtheimia corymbifera [22] = experiment: Antifungal activity against Absidia corymbifera 272 after 48 hrs by broth microdilution method; type: functional; conditions: Lichtheimia corymbifera, 272, 48 h
# Enterococcus sp. [23] = experiment: Antibacterial activity against Enterococcus sp. HK14365/08 after 48 hrs by broth microdilution method; type: functional; conditions: HK14365/08, 48 h
# Staphylococcus aureus [24] = experiment: Antibacterial activity against Staphylococcus aureus ATCC 6538 after 48 hrs by broth microdilution method; type: functional; conditions: ATCC 6538, 48 h
# Mycobacterium kansasii [25] = experiment: Antimycobacterial activity against Mycobacterium kansasii isolate 6509/96 after 14 days by micromethod; type: functional; conditions: isolate 6509/96, 336 h
# Candida albicans [26] = experiment: Antifungal activity against Candida albicans ATCC 44859 after 24 hrs by broth microdilution method; type: functional; conditions: ATCC 44859, 24 h
# [27] = test system: Staphylococcus epidermidis; experiment: Antibacterial activity against Staphylococcus epidermidis HK6966/08 after 24 hrs by broth microdilution method; type: functional; conditions: HK6966/08, 24 h
# Mycobacterium kansasii [28] = experiment: Antimycobacterial activity against Mycobacterium kansasii isolate 6509/96 after 7 days by micromethod; type: functional; conditions: isolate 6509/96, 168 h
# Mycobacterium kansasii [29] = experiment: Antimycobacterial activity against Mycobacterium kansasii isolate 6509/96 after 21 days by micromethod; type: functional; conditions: isolate 6509/96, 504 h
# Klebsiella pneumoniae [30] = experiment: Antibacterial activity against extended spectrum beta-lactamase producing Klebsiella pneumoniae HK14368/08 after 24 hrs by broth microdilution method; type: functional; conditions: HK14368/08, 24 h
# Escherichia coli [31] = experiment: Antibacterial activity against Escherichia coli ATCC 8739 after 48 hrs by broth microdilution method; type: functional; conditions: ATCC 8739, 48 h
# Staphylococcus aureus [32] = experiment: Antibacterial activity against methicillin-resistant Staphylococcus aureus HK5996/08 after 48 hrs by broth microdilution method; type: functional; conditions: HK5996/08, 48 h
# Nakaseomyces glabratus [33] = experiment: Antifungal activity against Candida glabrata 20/I after 24 hrs by broth microdilution method; type: functional
# Pichia kudriavzevii [34] = experiment: Antifungal activity against Candida krusei E28 after 48 hrs by broth microdilution method; type: functional; conditions: E28, 48 h
# [35] = test system: Staphylococcus epidermidis; experiment: Antibacterial activity against Staphylococcus epidermidis HK6966/08 after 48 hrs by broth microdilution method; type: functional; conditions: HK6966/08, 48 h
# Candida albicans [36] = experiment: Antifungal activity against Candida albicans ATCC 44859 after 48 hrs by broth microdilution method; type: functional; conditions: ATCC 44859, 48 h
# Nakaseomyces glabratus [37] = experiment: Antifungal activity against Candida glabrata 20/I after 48 hrs by broth microdilution method; type: functional
# Aspergillus fumigatus [38] = experiment: Antifungal activity against Aspergillus fumigatus 231 after 24 hrs by broth microdilution method; type: functional; conditions: Aspergillus fumigatus, 231, 24 h
# Candida tropicalis [39] = experiment: Antifungal activity against Candida tropicalis 156 after 48 hrs by broth microdilution method; type: functional; conditions: Candida tropicalis, 156, 48 h
# Lichtheimia corymbifera [40] = experiment: Antifungal activity against Absidia corymbifera 272 after 24 hrs by broth microdilution method; type: functional; conditions: Lichtheimia corymbifera, 272, 24 h
# [41] = test system: Mycobacterium tuberculosis; experiment: Antimycobacterial activity against Mycobacterium tuberculosis H37Rv CNCTC My 331/88 after 21 days by micromethod; type: functional; conditions: H37Rv CNCTC My 331/88, 504 h
# Mycobacterium avium [42] = experiment: Antimycobacterial activity against Mycobacterium avium CNCTC My 330/80 after 21 days by micromethod; type: functional; conditions: CNCTC My 330/80, 504 h
smiles,measurement,setting,value
COc1cccc(Cn2nnc(-c3cc([N+](=O)[O-])cc([N+](=O)[O-])c3)n2)c1,MIC,Aspergillus fumigatus [1],> 500 µM
same,MIC,[2],> 500 µM
same,MIC,Klebsiella pneumoniae [3],> 500 µM
same,MIC,Pseudomonas aeruginosa [4],> 500 µM
same,MIC99,Mycobacterium kansasii [5],4 µM
same,MIC99,[6],1 µM
same,MIC99,Mycobacterium kansasii [7],2 µM
same,MIC,Staphylococcus aureus [8],> 500 µM
same,MIC,Klebsiella pneumoniae [9],> 500 µM
same,MIC99,Mycobacterium avium [10],4 µM
same,MIC,Klebsiella pneumoniae [11],> 500 µM
same,MIC,Trichosporon asahii [12],> 500 µM
same,MIC,[13],> 500 µM
same,MIC99,Mycobacterium kansasii [14],1 µM
same,IC50,CHO-K1,> 100 µM
same,MIC,Enterococcus sp. [15],> 500 µM
same,MIC,Staphylococcus aureus [16],> 500 µM
same,MIC,Trichosporon asahii [17],> 500 µM
same,MIC,Candida tropicalis [18],> 500 µM
same,MIC,Pseudomonas aeruginosa [19],> 500 µM
same,MIC,Pichia kudriavzevii [20],> 500 µM
same,MIC,Escherichia coli [21],> 500 µM
same,MIC,Lichtheimia corymbifera [22],> 500 µM
same,MIC,Enterococcus sp. [23],> 500 µM
same,MIC,Staphylococcus aureus [24],> 500 µM
same,MIC99,Mycobacterium kansasii [25],2 µM
same,MIC,Candida albicans [26],> 500 µM
same,MIC,[27],> 500 µM
same,MIC99,Mycobacterium kansasii [28],1 µM
same,MIC99,Mycobacterium kansasii [29],2 µM
same,MIC,Klebsiella pneumoniae [30],> 500 µM
same,MIC,Escherichia coli [31],> 500 µM
same,MIC,Staphylococcus aureus [32],> 500 µM
same,MIC,Nakaseomyces glabratus [33],> 500 µM
same,MIC,Pichia kudriavzevii [34],> 500 µM
same,MIC,[35],> 500 µM
same,MIC,Candida albicans [36],> 500 µM
same,MIC,Nakaseomyces glabratus [37],> 500 µM
same,MIC,Aspergillus fumigatus [38],> 500 µM
same,MIC,Candida tropicalis [39],> 500 µM
same,MIC,Lichtheimia corymbifera [40],> 500 µM
same,MIC99,[41],1 µM
same,MIC99,Mycobacterium avium [42],8 µM
O=[N+]([O-])c1cc(-c2nnn(CSc3nnnn3-c3ccc(Cl)c(Cl)c3)n2)cc([N+](=O)[O-])c1,MIC,Aspergillus fumigatus [1],> 125 µM
same,MIC,[2],> 125 µM
same,MIC,Klebsiella pneumoniae [3],> 125 µM
same,MIC,Pseudomonas aeruginosa [4],> 125 µM
same,MIC99,Mycobacterium kansasii [5],125 µM
same,MIC99,[6],0.03 µM
same,MIC99,Mycobacterium kansasii [7],0.125 µM
same,MIC,Staphylococcus aureus [8],> 125 µM
same,MIC,Klebsiella pneumoniae [9],> 125 µM
same,MIC99,Mycobacterium avium [10],4 µM
same,MIC,Klebsiella pneumoniae [11],> 125 µM
same,MIC,Trichosporon asahii [12],> 125 µM
same,MIC,[13],> 125 µM
same,MIC99,Mycobacterium kansasii [14],0.06 µM
same,IC50,CHO-K1,8.7 µM
same,MIC,Enterococcus sp. [15],> 125 µM
same,MIC,Staphylococcus aureus [16],> 125 µM
same,MIC,Trichosporon asahii [17],> 125 µM
same,MIC,Candida tropicalis [18],> 125 µM
same,MIC,Pseudomonas aeruginosa [19],> 125 µM
same,MIC,Pichia kudriavzevii [20],> 125 µM
same,MIC,Escherichia coli [21],> 125 µM
same,MIC,Lichtheimia corymbifera [22],> 125 µM
same,MIC,Enterococcus sp. [23],> 125 µM
same,MIC,Staphylococcus aureus [24],> 125 µM
same,MIC99,Mycobacterium kansasii [25],0.06 µM
same,MIC,Candida albicans [26],> 125 µM
same,MIC,[27],> 125 µM
same,MIC99,Mycobacterium kansasii [28],0.03 µM
same,MIC99,Mycobacterium kansasii [29],0.06 µM
same,MIC,Klebsiella pneumoniae [30],> 125 µM
same,MIC,Escherichia coli [31],> 125 µM
same,MIC,Staphylococcus aureus [32],> 125 µM
same,MIC,Nakaseomyces glabratus [33],> 125 µM
same,MIC,Pichia kudriavzevii [34],> 125 µM
same,MIC,[35],> 125 µM
same,MIC,Candida albicans [36],> 125 µM
same,MIC,Nakaseomyces glabratus [37],> 125 µM
same,MIC,Aspergillus fumigatus [38],> 125 µM
same,MIC,Candida tropicalis [39],> 125 µM
same,MIC,Lichtheimia corymbifera [40],> 125 µM
same,MIC99,[41],0.03 µM
same,MIC99,Mycobacterium avium [42],8 µM
